Data on 22 compounds can be found in US6787541B1, “Thieno-and furopyrimidine derivatives as A2A-receptor antagonists” (Vernalis Research Limited, priority 1999, dated 2004).

The target in data set [1] is T1, human adenosine A2A receptors expressed in HEK-293 cells (Homo sapiens, UniProt P29274).
T1 construct: expressed in transfected cells; host or cells: HEK-293 cells
Nature of the data set: Binding affinities at hA2A receptors, displacement of [3H]-CGS 21680. A general note: In a radioligand displacement assay an active substance lowers the binding of a labelled ligand.

In data set [2] the test system is haloperidol-induced deficits in locomotor activity in mice. Nature of the data set: Haloperidol-induced hypolocomotion model. The data set is classed as in vivo. The following applies: intraperitoneally at a dose of 10 mg/kg. An excerpt: Haloperidol-induced Hypolocomotion Model
This approach is also considered a valid method for screening drugs with potential antiparkinsonian effects. Thus, the ability of novel adenosine antagonists to block haloperidol-induced deficits in locomotor activity in mice can be used to assess both in vivo and potential antiparkinsonian efficacy.
Female TO mice (25-30 g) obtained from TUCK, UK, are used for all experiments. Animals are housed in groups of 8 [cage size—40 (width)×40 (length)×20 (height)cm] under 12 hr light/dark cycle (lights on 08:00 hr), in a temperature (20±2° C.) and humidity (55±15%) controlled environment. Animals have free access to food and water, and are allowed at least 7 days to acclimatize after delivery before experimental use.
Liquid injectable haloperidol (1 ml Serenance ampoules from Baker Norton, Harlow, Essex, each containing haloperidol BP 5 mg, batch # P424) are diluted to a final concentration of 0.02 mg/ml using saline. Test compounds are typically prepared as aqueous suspensions in 8% Tween. […]
1.5 hours before testing, mice are administered 0.2 mg/kg haloperidol, a dose that reduces baseline locomotor activity by at least 50%. […] Horizontal locomotor activity is determined by placing the cages within a frame containing a 3×6 array of photocells linked to a computer, which tabulates beam breaks. […]

Another data set relates to cataleptic responses. The following applies: cited from earlier work.
A further data set relates to Parkinsonian patients. The following applies: cited from earlier work.

Molecules are shown by their SMILES.

T1 sequence (P29274 whole entry): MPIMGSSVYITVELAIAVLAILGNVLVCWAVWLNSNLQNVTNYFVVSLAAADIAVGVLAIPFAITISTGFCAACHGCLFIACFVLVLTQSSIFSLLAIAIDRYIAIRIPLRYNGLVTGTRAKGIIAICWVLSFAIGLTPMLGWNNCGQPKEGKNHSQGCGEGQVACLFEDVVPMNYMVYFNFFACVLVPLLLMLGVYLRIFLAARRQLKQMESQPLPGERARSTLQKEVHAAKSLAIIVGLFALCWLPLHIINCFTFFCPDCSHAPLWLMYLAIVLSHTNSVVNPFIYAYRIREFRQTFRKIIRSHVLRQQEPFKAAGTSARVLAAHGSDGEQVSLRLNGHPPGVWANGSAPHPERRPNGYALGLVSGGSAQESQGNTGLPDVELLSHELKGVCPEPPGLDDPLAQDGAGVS

Usually Ki stands for a dissociation constant, usually derived from enzyme kinetics or from competition with a known ligand. Read a low Ki as higher affinity. For orientation: melting point means the temperature, or range, at which the solid turns liquid. As to `CSc1nc(C(=O)c2cccs2)c2sccc2n1` [Example 48, 2-Methylthiothieno[3,2-d]pyrimidin-4-yl 2-thienylmethanone], the melting point fell in the range of 189.7 to 190.6 °C. In data set [1], this compound displayed a Ki of 151 nM.
Regarding `CC(C)(C)OC(=O)NCCNc1nc(C(=O)c2cccs2)c2sccc2n1` [Example 54, Tert-butyl (2-(4-(2-thienylcarbonyl)thieno[3,2-d]pyrimidin-2-yl)aminoethyl)carbamate], the melting point was 199.9 to 200.7 °C. The compound also had an inhibitory constant (Ki) in data set [1] of 36 nM.
The compound `CN(C)c1ccc(C(=O)c2nc(C(F)(F)F)nc3ccsc23)s1` [Example 56, 5-Dimethylamino-2-thienyl 2-trifluoromethylthieno[3,2-d]pyrimidin-4-ylmethanone] showed a melting point of 188 to 191 °C. The inhibition constant Ki in data set [1] came to 309 nM.
In the same order, the values of `O=C(c1cc(Br)cs1)c1nc(C(F)(F)F)nc2ccsc12` [Example 57, 4-Bromo-2-thienyl 2-trifluoromethylthieno[3,2-d]pyrimidin-4-ylmethanone] are 178 to 179 °C and 800 nM.
`C=CCNc1nc(C(=O)c2cccs2)c2sccc2n1` [Example 59, 2-Allylaminothieno[3,2-d]pyrimidin-4-yl 2-thienylmethanone] had a melting point of 142.1 to 142.9 °C. For the same compound, in data set [1], affinity was put at a Ki of 18 nM.
Compound `CCCc1nc(C(C#N)c2ccccn2)c2sccc2n1` (stereo not drawn) [Example 60, 2-n-Propyl-α-(2-pyridyl)thieno[3,2-d]pyrmidine-4-acetonitrile] returned a melting point of 185 to 187 °C. In data set [1], this compound had a Ki of 237 nM.
As for `CC(C)Nc1nc(C(=O)c2cccs2)c2sccc2n1` [Example 61, 2-Isopropylaminothieno[3,2-d]pyrimidin-4-yl 2-thienylmethanone], the melting point lay within 134.8 to 135.6 °C. In data set [1], this compound displayed a Ki of 21 nM.
`CCCc1nc(C(=O)c2cccs2)c2sccc2n1` [Example 63, 2-n-Propylthieno[3,2-d]pyrimidin-4-yl 2-thienylmethanone]: the melting point lay within 122 to 125 °C. In addition, in data set [1], the Ki is 37 nM.
`Cc1nc(C(C#N)c2ccccn2)c2sccc2n1` (stereo not drawn) [Example 64, 2-Methyl-α-(2-pyridyl)thieno[3,2-d]pyrimidine-4-acetonitrile] came in with a melting point of 266 to 269 °C. For the same compound, the Ki in data set [1] is 529 nM.
`COCCNc1nc(C(=O)c2cccs2)c2sccc2n1` [Example 65, 2-(2-Methoxyethylamino)thieno[3,2-d]pyrimidin-4-yl 2-thienylmethanone] gave a melting point of 135.6 to 135.9 °C. The Ki in data set [1] was found to be 21 nM.
`COc1ccc(C(=O)c2nc(C(F)(F)F)nc3ccsc23)s1` [Example 68, 5-Methoxy-2-thienyl 2-trifluoromethylthieno[3,2-d]pyrimidin-4-ylmethanone] came in with a melting point of 160 to 162 °C. Moreover, affinity in data set [1] was put at a Ki of 105 nM.
On to `O=C(c1ccccc1)c1nc(NCCO)nc2ccsc12` [Example 72, 2-(2-Hydroxyethylamino)thieno[3,2-d]pyrimidin-4-yl phenylmethanone], for which the melting point lay in the range of 114.1 to 114.9 °C. For the same compound, the Ki in data set [1] worked out at 126 nM.
As for `CCOc1nc(C(=O)c2cccs2)c2sccc2n1` [Example 73, 2-Ethoxythieno[3,2-d]pyrimidin-4-yl 2-thienylmethanone], the melting point was 164.6 to 165.4 °C. In data set [1], this compound had an inhibition constant (Ki) of 48 nM.
`Cc1cc(C(=O)c2nc(C(F)(F)F)nc3ccsc23)oc1C` [Example 74, 4,5-Dimethyl-2-furyl 2-trifluoromethylthieno[3,2-d]pyrimidin-4-ylmethanone] had a melting point of 185 to 186 °C. Moreover, in data set [1], the Ki was 90 nM.
For `CCOC(=O)CCCNc1nc(C(=O)c2cccs2)c2sccc2n1` [Example 76, Ethyl 4-(4-(2-thienylcarbonyl)thieno[3,2-d]pyrimidin-2-ylamino)butanoate], the melting point was in the range of 143.3 to 143.7 °C. Besides, the affinity in data set [1] corresponds to a Ki of 8 nM.
As for `O=C(c1cccs1)c1nc(N2CCOCC2)nc2ccsc12` [Example 77, 2-(4-Morpholinyl)thieno[3,2-d]pyrimidin-4-yl 2-thienylmethanone], the melting point is 199.9 to 200.5 °C. This compound also returned a Ki in data set [1] of 97 nM.
`O=C(c1cccs1)c1nc(NCCN2CCOCC2)nc2ccsc12` [Example 78, 2-(2-(4-Morpholinyl)ethylamino)thieno[3,2-d]pyrimidin-4-yl 2-thienylmethanone]: the melting point is > 120 °C (dec.). Also, the inhibition constant Ki in data set [1] came to 46 nM.
Consider `O=C(c1cccs1)c1nc(N2CCC(O)CC2)nc2ccsc12` [Example 86, 2-(4-Hydroxypiperidin-1-yl)thieno[3,2-d]pyrimidin-4-yl 2-thienylmethanone], for which the “reversal of haloperidol-induced hypolocomotion” value in data set [2] is “significantly reversed”.
Turning to `O=C(c1cccs1)c1nc(NCc2ccccn2)nc2ccsc12` [Example 95, 2-(2-Pyridylmethylamino)thieno[3,2-d]pyrimidin-4-yl 2-thienylmethanone], the melting point is 178.6 to 179.3 °C. In data set [1], this compound had a Ki of 8 nM.
`Cc1ccsc1C(=O)c1nc(NCCO)nc2ccsc12` [Example 118, 2-(2-Hydroxyethylamino)thieno[3,2-d]pyrimidin-4-yl 3-methyl-2-thienylmethanone] returned a melting point of 194.5 to 195 °C. In addition, affinity in data set [1] was put at a Ki of 7 nM.
In the case of `CCCn1c(=O)c2c(nc(/C=C/c3ccc(OC)c(OC)c3)n2C)n(CCC)c1=O` [KF 17837, (E)-8-(3,4-dimethoxystyryl)-1,3-dipropyl-7-methylxanthine], in the data set on cataleptic responses (in vivo), the “anticataleptic effects of a subthreshold dose of L-DOPA plus benserazide” value was “potentiated”; the “catalepsy induced by haloperidol and reserpine” value was “reduced”. Further, the “cataleptic responses induced by intracerebroventricular administration of CGS 21680” value in the data set with cataleptic responses (oral administration) was “significantly ameliorated”.
As to `Cn1c(=O)c2[nH]cnc2n(C)c1=O` [theophylline, 1,3-dimethylxanthine], in the data set with Parkinsonian patients (15 Parkinsonian patients, up to 12 weeks, 150 mg/day oral), the “mean objective disability scores” value was “significant improvements”. Moreover, the “patients reporting moderate or marked subjective improvement” value in the data set on Parkinsonian patients (of 15 Parkinsonian patients, up to 12 weeks, 150 mg/day oral) is 11. In the data set on Parkinsonian patients (slow release oral theophylline preparation 150 mg/day, after one week), the serum theophylline levels is reported as 4.44 mg/L.
